Measurements: US7534742B2, “Isoprenoid biosynthesis” (priority 1999, dated 2009)

Molecular target: T1, YgbP (Escherichia coli, UniProt Q46893)
T1 construct: made in house; host or cells: E. coli XL1-Blue, plasmid pNCOygbP (vector pNCO113)
Assay: Screening of 4-diphosphocytidyl-2C-methyl-D-erythritol synthase by spectrophotometric method (coupled pyrophosphate/NADP+ assay, 340 nm)
Assay type: biochemical, E. coli
Conditions: 37° C.
Method: Recombinant 4-diphosphocytidyl-2C-methyl-D-erythritol synthase is tested by a spectrophotometric assay at 340 nm, in which the inorganic pyrophosphate formed from 2-C-methyl-D-erythritol 4-phosphate and CTP is used in a cascade of downstream reactions leading to the reduction of NADP^+. Reactions mixtures contained 50 mM Tris hydrochloride pH 8.0, 200 μM 2C-methyl-D-erythritol 4-phosphate, 200 μM CTP, 5 mM MgCl2, 1 mM DTT, 1 μM glucose 1,6-biphosphate, 500 μM UDP-Glucose, 174 μM NADP^+, 0.125 U of UDP-glucose pyrophosphorylase, 0.16 U of phosphoglucomutase, and 1 U of glucose 6-phosphate deydrogenase, various concentrations of D-erythritol 4-phosphate respectively D-ribitol 5-phosphate as shown in Table 4 and 10 μl of enzyme in a total volume of 1 ml. One unit of enzyme activity is defined as the amount of enzyme catalyzing the conversion of 1 μmol of substrate per min at 37° C.

[1] = test compound concentration 0.2 mM
[2] = test compound concentration 0.4 mM
[3] = test compound concentration 0.8 mM
[4] = test compound concentration 1.6 mM
[5] = test compound concentration 3.2 mM

T1 sequence (Q46893 2-236): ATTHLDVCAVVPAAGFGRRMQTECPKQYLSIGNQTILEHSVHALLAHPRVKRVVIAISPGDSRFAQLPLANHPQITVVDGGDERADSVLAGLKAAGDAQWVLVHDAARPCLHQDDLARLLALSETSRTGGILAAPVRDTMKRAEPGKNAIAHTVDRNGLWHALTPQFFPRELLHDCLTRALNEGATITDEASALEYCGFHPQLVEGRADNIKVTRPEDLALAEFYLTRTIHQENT

| Compound | specific activity [1] [µmol/min/mg] | specific activity (% of activity at 0 mM test compound) [1] [%] | specific activity [2] [µmol/min/mg] | specific activity (% of activity at 0 mM test compound) [2] [%] | specific activity [3] [µmol/min/mg] | specific activity (% of activity at 0 mM test compound) [3] [%] | specific activity [4] [µmol/min/mg] | specific activity (% of activity at 0 mM test compound) [4] [%] | specific activity [5] | specific activity (% of activity at 0 mM test compound) [5] |
| --- | --- | --- | --- | --- | --- | --- | --- | --- | --- | --- |
| O=P(O)(O)OC[C@@H](O)[C@@H](O)CO [D-erythritol 4-phosphate] | 15.9 | 92 | 15.9 | 92 | 12.9 | 75 | 5.9 | 34 | 0 (0%) μmol min^−1 mg^−1 | 0 (0%) |
| O=P(O)(O)OC[C@@H](O)[C@@H](O)[C@@H](O)CO [D-ribitol 5-phosphate] | 16.5 | 102 | – | – | – | – | 16.9 | 105 | – | – |
